“Also recorded” adds a separate entry of the source.
Columns and labels:
CYP3A11 = details: mouse, in vivo, po
Method: (§1) Mice were divided into four groups (3 male mice each). Mice in the treated groups were fed with plumbagin at a daily oral dose of 25, 12.5, or 6.25 mg/kg body weight (1 mL) for 28 days. The control group received a daily oral dose (1 mL) of 20 % Tween-80 for 28 days. At the end of the experiment period, all animals were sacrificed under ether anesthesia and livers were removed for investigation of the modulatory effect of plumbagin on hepatic CYP1A2 and CYP3A11.
The liver samples were rinsed with ice-cold, 0.9 %NaCl, homogenized in 50 mM sodium phosphate buffer (pH 7.4) containing 0.1 mM EDTA, and centrifuged at 9000 × g for 20 min. […] Protein concentrations were determined by Bradford protein assay and the suspended microsomes were aliquoted and stored at −80 °C until use. […]
(§2) The incubation mixture of 500 μL containing the selective substrate (20 μM phenacetin and 40 μm nifedipine for CYP1A2 and CYP3A11, respectively), mice liver microsomes (in 100 mM phosphate buffer pH 7.4) was pre-incubated at 37 °C for 5 min in a shaking water bath. […] Concentrations of paracetamol (metabolite of CYP1A2) and oxidized nifedipine (metabolite of CYP3A11) in the incubation mixtures were determined using HPLC with UV detection. […]

[1] = tested on: 3D7 chloroquine-sensitive P. falciparum; details: 3D7 clone; read-out: median IC50; cited from earlier work
CYP1A2 = CYP1A2 activity (phenacetin O-deethylation) in liver microsomes of treated mice; format: in vivo, mouse; details: for modulation of CYP1A2 activity (paracetamol produced): mice, 25, 12.5, 6.25 mg/kg daily oral for 28 days vs control
Method: as §1
The liver samples were rinsed with ice-cold, 0.9 %NaCl, homogenized in 50 mM sodium phosphate buffer (pH 7.4) containing 0.1 mM EDTA, and centrifuged at 9000 × g for 20 min. The supernatant was ultracentrifuged at 105,000 × g for 60 min, and the resulting microsomal pellets were suspended with ice cold 1.15 % KCl solution and ultracentrifuged at 105,000 × g for 60 min. The pellets were homogenized with 50 mM potassium phosphate (pH 7.4) containing 0.1 mM EDTA and 10 % glycerol. Protein concentrations were determined by Bradford protein assay and the suspended microsomes were aliquoted and stored at −80 °C until use.
Phenacetin O-deethylation and nifedipine oxidation were used as selective markers for CYP1A2 and CYP3A11 activities, respectively. The substrate concentration equivalent to the apparent Km (Michaelis-Menten constant) of each individual CYP450 was used in the experiment. Final concentration of organic solvent in the incubation mixture was less than 1 %. The incubation conditions for determination enzyme activity to both CYP450 isoforms were according to the previously described methods.
as §2

CYP3A4 = details: cited from earlier work
parasitemia = tested on: parasitemia; design: method as in PMID 24410949; details: 25 mg/kg body weight given for 4 days; cited from earlier work
[2] = tested on: platelet adhesion and coagulation; details: rats, daily doses of 2 mg/kg body weight; plumbagin as a component of Plumbago zeylanica; cited from earlier work
[3] = tested on: human colon epithelial cell monolayer Caco-2; details: cited from earlier work

CC1=CC(=O)c2c(O)cccc2C1=O [plumbagin, 5-hydroxy-2-methyl-1,4-naphthoquinone]
trend of CYP3A11 mRNA expression and enzyme activity (CYP3A11): a trend of reduction
IC50 [1]: 0.58 µM
modulation of CYP1A2 activity (paracetamol produced) (CYP1A2): no significant change; also recorded: not found to induce or inhibit
modulation of CYP1A2 activity (paracetamol produced) (CYP1A2; listed as Plumbagin): did not significantly modulate
trend of CYP1A2 activity (CYP1A2; particularly at the lowest dose level of 6.25 mg/kg body weight): tended to be reduced
IC50 (CYP3A4): 2.37 µM
antimalarial activity in vivo (reduction of parasitemia, prolongation of survival time) (parasitemia): weak
platelet adhesion and coagulation [2]: significantly decreased
influence of efflux protein on permeability ([3]; Caco-2): no influence of efflux protein
permeability ([3]; Caco-2): moderate
transport mechanism [3]: passive transport
